Experimental data taken from ChEMBL document CHEMBL4610075, “Isolation, Absolute Configuration, and Biological Activities of Chebulic Acid and Brevifolincarboxylic Acid Derivatives from Euphorbia hirta” (J Nat Prod, 2020).

Columns and labels:
[1] = Antioxidant activity assessed as DPPH radical scavenging activity after 30 mins; assay type: functional
[2] = test system: BV-2; assay: Antineuroinflammatory activity in mouse BV2 cells assessed as inhibition of LPS-induced NO production incubated for 24 hrs by Griess assay; assay type: functional, cell-based; settings: BV-2, 24 h

Row | Structure (SMILES) | EC50 [1] | IC50 [2]
1 | CCOC(=O)[C@H]1OC(=O)c2cc(O)c(O)c(O)c2[C@@H]1[C@@H](CC(=O)O)C(=O)OCC | 8.1 µM | 
2 | O=C(O)Cc1c2c3c(cc(O)c(O)c3oc1=O)C(=O)OC2 | 4.7 µM | 
3 | CCOC(=O)[C@H]1CC(=O)c2oc(=O)c3cc(O)c(O)c(O)c3c21 | 6.7 µM | 30.5 µM
4 | CCOC(=O)C1OC(=O)c2cc(O)c(O)c3oc(=O)c(CC(=O)O)c1c23 (racemic) | 9.9 µM | 
5 | CCOC(=O)C[C@@H](C(=O)O)[C@H]1c2c(cc(O)c(O)c2O)C(=O)O[C@@H]1C(=O)OCC | 15.8 µM | 
6 | O=C1C[C@H](C(=O)O)c2c1oc(=O)c1cc(O)c(O)c(O)c21 | 3 µM | 
7 | O=C1CCc2c1oc(=O)c1cc(O)c(O)c(O)c21 | 7.6 µM | 27 µM
8 | CCOC(=O)/C=C(/C(=O)OC)[C@H]1c2c(cc(O)c(O)c2O)C(=O)O[C@@H]1C(=O)OCC | 6 µM | 
9 | CCOC(=O)/C(=C/C(=O)O)[C@H]1c2c(cc(O)c(O)c2O)C(=O)O[C@@H]1C(=O)OCC | 10.8 µM | 
10 | CCOC(=O)Cc1c2c3c(cc(O)c(O)c3oc1=O)C(=O)OC2 | 2.2 µM | 
11 | COC(=O)Cc1c2c3c(cc(O)c(O)c3oc1=O)C(=O)OC2 | 8 µM | 
12 | CCOC(=O)Cc1c2c3c(cc(O)c(O)c3oc1=O)C(=O)C2(O)C(=O)OCC (racemic) | 5.3 µM | 31.5 µM
13 | CCOC(=O)Cc1c2c3c(cc(O)c(O)c3oc1=O)C(=O)OC2C(=O)OCC (racemic) | 4.2 µM | 
14 | CCOC(=O)C[C@@H](C(=O)OCC)[C@H]1c2c(cc(O)c(O)c2O)C(=O)O[C@@H]1C(=O)OCC | 6.8 µM | 
15 | CCOC(=O)C1(OCC)CC(=O)c2oc(=O)c3cc(O)c(O)c(O)c3c21 (racemic) | 4 µM | 
16 | CCOC(=O)Cc1c2c3c(cc(O)c(O)c3oc1=O)C(=O)OC2C(=O)OC (racemic) | 6.5 µM | 
17 | CCOC(=O)/C=C(/C(=O)O)[C@H]1c2c(cc(O)c(O)c2O)C(=O)O[C@@H]1C(=O)OCC | 8.1 µM | 
18 | COC(=O)[C@H]1CC(=O)c2oc(=O)c3cc(O)c(O)c(O)c3c21 | 6 µM | 
19 | CCOC(=O)/C=C(/C(=O)OCC)[C@H]1c2c(cc(O)c(O)c2O)C(=O)O[C@@H]1C(=O)OC | 4.4 µM | 
20 | CCOC(=O)/C=C(/C(=O)OCC)[C@H]1c2c(cc(O)c(O)c2O)C(=O)O[C@@H]1C(=O)O | 5.4 µM | 
21 | CN(C)c1ccc(O)c2c1C[C@H]1C[C@H]3[C@H](N(C)C)C(O)=C(C(N)=O)C(=O)[C@@]3(O)C(O)=C1C2=O [MINOCYCLINE] |  | 18.5 µM
22 | O=C1O[C@H]([C@@H](O)CO)C(O)=C1O [ASCORBIC ACID] | 9.2 µM | 
23 | CCOC(=O)/C=C(/C(=O)OCC)[C@H]1c2c(cc(O)c(O)c2O)C(=O)O[C@@H]1C(=O)OCC | 2.2 µM | 
24 | CCOC(=O)[C@H]1CC(=O)c2c1c1c(O)c(O)c(O)cc1c(=O)n2CCCC(=O)OC | 6.7 µM | 
25 | COC(=O)C1OC(=O)c2cc(O)c(O)c3oc(=O)c(CC(=O)O)c1c23 (racemic) | 7.7 µM | 
